In patent US12129255B2, “Pyrido [2,3-d]pyrimidine derivatives as inhibitors of human immunodeficiency virus replication” (VIIV HEALTHCARE UK (No. 5) LIMITED, priority 2019, dated 2024):

Assays:
Assay type in all cases: in vitro ADME
[1] = Metabolism in human hepatocytes
Experimental: Cryopreserved hepatocytes in suspension from human, monkey, dog, rat and mouse were thawed and diluted in pre-warmed William's Medium E (pH 7.4). Aliquots of the hepatocyte suspension were added to test compound working solutions prepared in pre-warmed William's Medium E (pH 7.4) to achieve final concentrations of 0.5 μM in 0.5×10^6 cells per milliliter and ≤0.25% DMSO. These samples were incubated at 37° C. with 5% carbon dioxide and shaking at 200 rpm. The incubations were performed in singlet. […] Following completion of the experiment, samples were analyzed by LC-MS/MS. […] This percentage is calculated by dividing the peak area ratio of test compound following incubation (tx) by the peak area ratio of test compound at time-zero (t0) just prior to incubation. • The elimination rate constant (k, min^−1) is calculated using nonlinear regression fitting with the following equation: Ct=C0×e^(−k×t) • where: • C0 is the initial concentration represented as the peak area ratio (test compound peak area/internal standard peak area); • Ct is the concentration at t represented as the area ratio (test compound peak area/internal standard peak area); • e is the base of the natural logarithm • t is the time (min); • k is the elimination rate constant (min^−1). • The half-life (t1/2, min) is calculated using the following equation: […]

[2] = Metabolism in liver microsomes (human); details: pH 7.4, 1 μM compound, 1 mg/mL microsomes, NADPH, read-out: Human liver microsome T1/2
Experimental: (§1) Liver microsomes from human, rat dog and monkey were thawed and diluted to a final concentration of 1 mg/mL in 100 mM potassium phosphate buffer (pH 7.4). Test compounds and controls were prepared at 100× final concentration of 1 μM in 1:1 acetonitrile:water (v/v) and aliquoted into microsomal mixture. The mixture was preincubated at 37° C. in a shaking water bath for 10 minutes. The incubations were performed in duplicate. Three controls were included in the incubations; warfarin, phenacetin, and verapamil. After the preincubation, the reaction was initiated with NADPH at a final concentration of 1 mM. At 0, 5, 15, 30, 45 and 60 minutes, 25 μL of sample was removed and quenched with 300 μL of acetonitrile containing internal standard (Telmisartan). The samples were vortexed for 5 minutes at 1200 rpm and then centrifuged at 4000 rpm for 10 min. A 100 μL aliquot of supernatant was diluted three-fold with water and injected on an Exion LC 4500 Triple Quad LC-MS/MS system. Results were reported as a percentage of parent remaining and was calculated from peak area ratios of test compound remaining after at each time point and compared to time zero incubation.

[3] = Metabolism in liver microsomes (monkey)
Experimental: as §1

Cn1nc(NS(C)(=O)=O)c2c(Cl)ccc(-n3c([C@H](Cc4cc(F)cc(F)c4)NC(=O)Cn4nc(C(F)F)c5c4C(F)(F)[C@@H]4C[C@H]54)nc4nc(OCCC(F)(F)F)ccc4c3=O)c21 (atropisomer, axis not shown; (P)) [Example 1, N—((S)-1-((3P)-3-(4-chloro-1-methyl-3-(methylsulfonamido)-1H-indazol-7-yl)-4-oxo-7-(3,3,3-trifluoropropoxy)-3,4-dihydropyrido[2,3-d]pyrimidin-2-yl)-2-(3,5-difluorophenyl)ethyl)-2-((3bS,4aR)-3-(difluoromethyl)-5,5-difluoro-3b,4,4a,5-tetrahydro-1H-cyclopropa[3,4]cyclopenta[1,2-c]pyrazol-1-yl)acetamide]
intrinsic clearance in human hepatocytes ([1]; 0.5 μM, 0.5×10^6 cells per milliliter): 0.312 mL/min/g liver
half-life at 0.5 μM ([1]; human, cryopreserved hepatocytes in suspension, pH 7.4, 0.5×10^6 cells per milliliter): > 480 min
half-life at 1 μM [2]: > 120 min
stability in monkey liver microsomes relative to Example 60.2 ([3]; Example 1 versus Example 60.2): at least two times more stable
half-life at 1 μM ([3]; monkey, liver microsomes, pH 7.4, 1 μM compound, 1 mg/mL microsomes, NADPH, read-out: Monkey liver microsome T1/2): > 120 min
